Laboratory results published in patent US10292972B1, “Pharmaceutical composition for treating cancer and a method thereof” (King Abdulaziz University, priority 2017, dated 2019).

Assays:
[1] = system: MCF7 breast cancer cells; experiment: cells; assay type: cell-based, human
Protocol: (§1) MCF7, a breast cancer cell line was procured from the American Type Culture Collection (ATCC) and propagated in Dulbecco's Modified Eagle's medium (DMEM) supplemented with 10% (v/v) fetal bovine serum (FBS), 100 μg/ml streptomycin and 100 U/ml penicillin at 37° C. in a humidified incubator with 5% CO2. Human pancreatic cell lines, AsPC1 and PANC1, were obtained from the American Type Culture Collection (ATCC). AsPC1 cell line was grown in RPMI-1640 medium supplemented with 10% (v/v) fetal bovine serum (FBS), 100 μg/ml streptomycin and 100 U/ml penicillin. PANC1 cell line was cultured in DMEM supplemented with 10% (v/v) fetal bovine serum (FBS), 100 μg/ml streptomycin and 100 U/ml penicillin.
MCF7 cells (2×10^4 cells/well) were sub-cultured in 24-well plate and incubated at 37° C. in a humidified incubator with 5% CO2 for 20 hrs. […] After the drug treatment, cells were analysed under phase contrast microscope. […]
MCF7 cells (2×10^4 cells/well) were treated with 3 μM, 30 μM, 300 μM, 600 μM, 1.5 mM of isopicrinine at 37° C. in a humidified incubator with 5% CO2 for 20 hrs. After the drug treatment, cells were analysed under phase contrast microscope. Cytotoxicity was detected at 300 μM concentration onwards in all the samples. […] The nuclear morphological changes, which are mainly associated with apoptosis were analysed by Hoechst 33342 staining. […]

[2] = system: AsPC1 cell line; experiment: cells; assay type: cell-based; conditions: Homo sapiens, ASPC1, 24 h, read-out: % Cell viability
Protocol: as §1
(§2) PANC1 and AsPC1 cells (1.3×10^4 cells/well) were sub-cultured in 96-well plates and incubated at 37° C. in a humidified incubator with 5% CO2 for 24 hrs. Varying concentrations of isopicrinine (i.e., 0, 30 μM, 75 μM, 150 μM and 300 μM were added to the cultured cells and further incubated at 37° C. in a humidified incubator with 5% CO2 for 24 hrs. The cell viability was determined using MTT (3-(4,5-dimethylthiazol-2-yl)-2,5-diphenyltetrazolium bromide) assay by following the manufacturer's instructions. Briefly, 20 μl/well of MTT was added to the cells and plates were incubated for 4 hrs. After the incubation, media along with the MTT was removed and 150 μl/well of isopropanol was added and further incubated for 15 min on shaker incubator. Spectrophotometer readings were taken at 450 nm and 630 nm. This assay is based on the conversion of yellow tetrazolium salt MTT to purple formazan crystal by metabolically active cells. The amount of formazan produced is proportional to the number of viable cells.

[3] = system: PANC1 cell line; experiment: cells; assay type: cell-based; conditions: Homo sapiens, PANC-1, 24 h, read-out: % Cell Viability
Protocol: as §1, §2

[4] = system: MCF7 breast cancer cells; experiment: Hoechst 33342 staining of nuclear morphological changes (apoptosis); assay type: cell-based, human; conditions: MCF7, 150 μM, 24 hrs, FIG. 3B
Protocol: MCF7 cells (2×10^4 cells/well) were treated with 3 μM, 30 μM, 300 μM, 600 μM, 1.5 mM of isopicrinine at 37° C. in a humidified incubator with 5% CO2 for 20 hrs. After the drug treatment, cells were analysed under phase contrast microscope. Cytotoxicity was detected at 300 μM concentration onwards in all the samples. […] The nuclear morphological changes, which are mainly associated with apoptosis were analysed by Hoechst 33342 staining. Briefly, MCF7 cells (2×10^4 cells/well) were grown on coverslips and treated with 150 μM of purified alkaloid for 24 hrs. The cells were washed with Dulbecco's phosphate buffer saline (DPBS) and fixed with 100% methanol for 15 min at room temperature. Cells were washed with DPBS and stained with Hoechst 33342 for 15 min at room temperature. The cells were washed thrice with DPBS and analysed under fluorescent microscope (Nikon, Japan).

[5] = system: MCF7 breast cancer cells; experiment: RNA-Seq gene expression profiling of isopicrinine-treated MCF7 cells; assay type: cell-based, human; conditions: for number of upregulated genes / number of downregulated genes: vs DMSO-treated control, P value <0.05; for number of downregulated genes: fold change <−1
Protocol: MCF7 cells (1.6×10^5 cells) were treated with varying doses (sub-lethal) of purified isopicrinine i.e., 30 μM and 150 μM, in triplicates, for 18 hrs at 37° C. Total RNA was extracted using TRIzol reagent. Gene expression analyses of drug-treated MCF7 cells in the presence of sub-lethal concentrations of isopicrinine were performed using Illumina HiSeq. Each RNA was ribo-depleted (Ribo-Zero, Epicentre) prior to cDNA libarary preparation (ScriptSeq epicenter). Each cDNA was separately barcode tagged during library preparation, and sequenced in multiplex generating approximately >40 million 100 bp reads per sample for the mammalian cell line. The Illumina reads were mapped to their respective assembled reference transcriptome sequence using the mapping software TopHat and Cufflinks (Trapnell, C., Pachter, L., Salzberg, S. L. 2009. TopHat: discovering splice junctions with RNA-Seq. Bioinformatics, May 1; 25(9):1105-11. doi: 10.1093/bioinformatics/btp120, incorporated herein by reference in its entirety). Illumina read abundances mapping to each reference contig was normalized using the RPKM (reads per Kb per million reads) calculation. Differentially expressed transcripts were identified and functionally annotated using a variety of statistical analyses available via bioconductor in R language (Durinck, S., Moreau, Y., Kasprzyk, A., Davis, S., De Moor, B., Brazma, A., Huber, W. 2005. BioMart and Bioconductor: a powerful link between biological databases and microarray data analysis. Bioinformatics, 21(16), 3439-3440. doi: 10.1093/bioinformatics/bti525, incorporated herein by reference in its entirety). Clusters of differentially expressed and cycling transcripts were annotated to identify over-represented GO/KEGG pathways (Kanehisa, M., Goto, S., Sato, Y., Furumichi, M., Tanabe, M., 2012. KEGG for integration and interpretation of large-scale molecular data sets. Nucleic Acids Res., 40 (Database issue), D109-14. doi: 10.1093/nar/gkr988, incorporated herein by reference in its entirety).
MCF7 cell line was treated with sub-lethal doses of 30 μM and 150 μM of isopicrinine. […] RNA-Seq transcription profiling was performed for analyzing the transcriptome profile in alkaloid treated MCF7 cells in order to evaluate the pharmacological effects of the new alkaloid isolated from Rhazya stricta. To identify the differentially regulated/expressed genes after treatment with isopicrinine, RNA was extracted from alkaloid treated MCF7 cells (30 μM and 150 μM doses) and DMSO-treated control cells and RNA-Seq experiment was carried out. The sequencing data were compared and analyzed to identify the differentially expressed genes in mammalian cells after treatment with isopicrinine.

[6] = system: MCF7 breast cancer cells; experiment: as above; assay type: cell-based, human; conditions: MCF7, 30 μM and 150 μM
[7] = MCF7, vs DMSO control, Cell divsion, dose not given
[8] = MCF7, vs DMSO control, Chromosone Organization, dose not given
[9] = MCF7, vs DMSO control, Cytoskeleton, dose not given
[10] = MCF7, vs DMSO control, DNA repair, dose not given
[11] = MCF7, vs DMSO control, DNA replication, dose not given
[12] = MCF7, vs DMSO control, Induction of apoptosis, dose not given
[13] = MCF7, vs DMSO control, Regulation of cell growth, dose not given
[14] = MCF7, vs DMSO control, Regulation of transcription, dose not given
[15] = MCF7, vs DMSO control, Response to DNA damage stimulus, dose not given

C/C=C1\CN2[C@H]3C[C@@H]1[C@@H](C(=O)OC)[C@]14C[C@H]2O[C@]31Nc1ccccc14 [isopicrinine]
IC50 ([1]; Homo sapiens, MCF7, 20 h, read-out: IC50 value (cytotoxic activity against MCF7 cells)): 240 µM | cell morphology after treatment with high doses ([1]; MCF7, FIGS. 2D-2F (300, 600, 1,500 μM)): cell shrinkage, cellular detachment and loss of adherent morphology | viability at 30 µM [2]: 87.7% | viability at 75 µM [2]: 55.9% | viability at 150 µM [2]: 53.5% | viability at 300 µM [2]: 42.4% | viability at 30 µM [3]: 74.5% | viability at 75 µM [3]: 70.8% | viability at 150 µM [3]: 69.6% | viability at 300 µM [3]: 64.6% | nuclear morphology, Hoechst 33342 staining [4]: chromatin condensation and nuclear fragmentation | expression of Mxi1 gene ([5]; MCF7): significantly upregulated | expression of cell cycle and cell proliferation genes (CDC6, CDK1, CDCA5, DLGAP5, NUSAP1, KIF23, PRC1, BIRC5, AURKB, NDC80, CDC45) ([5]; MCF7, 30 μM): not affected | cytotoxicity at sub-lethal doses ([5]; MCF7, 30 μM and 150 μM, 18 hrs): No cytotoxicity was detected | number of upregulated genes ([5]; MCF7, 30 μM): 148 genes | number of downregulated genes ([5]; MCF7, 30 μM): 64 genes | expression of cell cycle and cell proliferation genes (CDC6, CDK1, CDCA5, DLGAP5, NUSAP1, KIF23, PRC1, BIRC5, AURKB, NDC80, CDC45) ([5]; MCF7, 150 μM): significantly downregulated | number of downregulated genes ([5]; MCF7, 150 μM): 59 genes | number of upregulated genes ([5]; MCF7, 150 μM, fold change >1): 36 genes | expression of cell division and mitosis genes (PTTG1, DLGAP5, Cdc6, NDC80, KIF15, KIF23, PRC1, NUSAP1, Aurora B kinase, CDCA5, ATAD2) ([5]; MCF7, high dose): downregulated | expression of pro-apoptotic gene PUMA (BBC3) ([5]; MCF7, sub-lethal dose, FIG. 5): upregulated | expression of survivin (BIRC5) ([5]; MCF7, sub-lethal doses): Downregulation | log2 (fold change) ASPM [5, 7]: −1.3045 | log2 (fold change) AURKB [5, 7]: −1.646 | log2 (fold change) BIRC5 [5, 7]: −0.9572 | log2 (fold change) CDC6 [5, 7]: −2.322 | log2 (fold change) CDCA5 [5, 7]: −1.551 | log2 (fold change) CDK1 [5, 7]: −1.149 | log2 (fold change) FBXO5 [5, 7]: −1.067 | log2 (fold change) KIF23 [5, 7]: −0.905 | log2 (fold change) NCAPG [5, 7]: −1.314 | log2 (fold change) NCAPH [5, 7]: −1.018 | log2 (fold change) NDC80 [5, 7]: −1.343 | log2 (fold change) NUSAP1 [5, 7]: −1.539 | log2 (fold change) PRC1 [5, 7]: −1.527 | log2 (fold change) PTTG1 [5, 7]: −1.05 | log2 (fold change) SGOL1 [5, 7]: −1.044 | log2 (fold change) DLGAP5 [5, 8]: −1.263 | log2 (fold change) ESPL1 [5, 8]: −1.9647 | log2 (fold change) H2AFZ [5, 8]: −0.952 | log2 (fold change) HIST1H1B [5, 8]: −2.278 | log2 (fold change) HIST1H2AJ, HIST1H2AK [5, 8]: −2.034 | log2 (fold change) HIST1H2AM, HIST1H3J [5, 8]: −2.034 | log2 (fold change) HIST1H2BL [5, 8]: −2.032 | log2 (fold change) HIST2H2AA4, HIST2H2AC [5, 8]: −1.505 | log2 (fold change) HIST2H2AB [5, 8]: −2.144 | log2 (fold change) HIST2H2BF [5, 8]: −1.757 | log2 (fold change) HIST2H3C [5, 8]: −2.716 | log2 (fold change) HIST2H3PS2 [5, 8]: −1.3321 | log2 (fold change) HIST2H4A [5, 8]: −2.138 | log2 (fold change) AGBL2 [5, 9]: 2.627 | log2 (fold change) DLG2 [5, 9]: 2.268 | log2 (fold change) DRP2 [5, 9]: 2.047 | log2 (fold change) KRT81 [5, 9]: 1.797 | log2 (fold change) PTP4A1 [5, 9]: 1.331 | log2 (fold change) BRCA1 [5, 10]: −1.076 | log2 (fold change) EXO1 [5, 10]: −1.784 | log2 (fold change) RAD51AP1 [5, 10]: −1.652 | log2 (fold change) UHRF1 [5, 10]: −1.1337 | log2 (fold change) CDC45 [5, 11]: −1.801 | log2 (fold change) MCM3 [5, 11]: −1.644 | log2 (fold change) MCM4 [5, 11]: −1.522 | log2 (fold change) MCM5 [5, 11]: −1.878 | log2 (fold change) MCM6 [5, 11]: −1.423 | log2 (fold change) MCM7 [5, 11]: −1.716 | log2 (fold change) MCM8 [5, 11]: −1.013 | log2 (fold change) MCM10 [5, 11]: −1.321 | log2 (fold change) RFC3 [5, 11]: −1.142 | log2 (fold change) RRM2 [5, 11]: −1.2797 | log2 (fold change) TOP2A [5, 11]: −1.662 | log2 (fold change) BBC3 [5, 12]: 1.481 | log2 (fold change) CDKN1A [5, 12]: 1.119 | log2 (fold change) INHBA [5, 12]: 1.026 | log2 (fold change) MAGED1 [5, 12]: 0.8954 | log2 (fold change) LTBP4 [5, 13]: 1.504 | log2 (fold change) SPP1 [5, 13]: 1.075 | log2 (fold change) VGF [5, 13]: 0.9472 | log2 (fold change) ATAD2 [5, 14]: −1.388 | log2 (fold change) ATAD5 [5, 14]: −1.628 | log2 (fold change) ATF3 [5, 14]: 1.3961 | log2 (fold change) BRIP1 [5, 14]: −1.416 | log2 (fold change) EGR1 [5, 14]: 1.39 | log2 (fold change) FHL2 [5, 14]: 1.024 | log2 (fold change) MDM2 [5, 14]: 1.725 | log2 (fold change) MXI1 [5, 14]: 1.118 | log2 (fold change) MYBL2 [5, 14]: −1.231 | log2 (fold change) NRG1 [5, 14]: 0.8825 | log2 (fold change) BTG2 [5, 15]: 1.485 | log2 (fold change) CCND1 [5, 15]: 1.49 | log2 (fold change) DDB2 [5, 15]: 1.191 | log2 (fold change) GADD45A [5, 15]: 1.333 | cell proliferation at low doses compared to DMSO control [6]: prevented further cell proliferation
